Holding throughout (details): concentration not given here
Test [1] addresses Glutathione S-transferase alpha-3 (Rattus norvegicus) (UniProt P04904). Description: Tested for percent inhibition of isolated rat liver cytosolic Glutathione S-transferase 2-2 isoenzyme.
Test [2] has as its target T1, Glutathione S-transferase Mu 2 (Rattus norvegicus) (UniProt P08010).
T1 sequence (whole entry): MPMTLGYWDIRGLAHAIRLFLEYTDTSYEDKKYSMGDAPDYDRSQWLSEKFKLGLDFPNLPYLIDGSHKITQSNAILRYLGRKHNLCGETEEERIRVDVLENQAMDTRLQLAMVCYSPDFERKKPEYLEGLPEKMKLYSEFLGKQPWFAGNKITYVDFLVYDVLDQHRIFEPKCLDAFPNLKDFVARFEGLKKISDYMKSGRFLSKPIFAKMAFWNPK
Description: Tested for percent inhibition of isolated rat liver cytosolic Glutathione S-transferase 4-4 isoenzyme.

Test [3] concerns the target Glutathione S-transferase alpha-1 (Rattus norvegicus) (UniProt P00502). The experiment in a line: Tested for percent inhibition of isolated rat liver cytosolic Glutathione S-transferase 1-1 isoenzyme.
The target of test [4] is T2, Glutathione S-transferase Mu 1 (Rattus norvegicus) (UniProt P04905).
T2 sequence (whole entry): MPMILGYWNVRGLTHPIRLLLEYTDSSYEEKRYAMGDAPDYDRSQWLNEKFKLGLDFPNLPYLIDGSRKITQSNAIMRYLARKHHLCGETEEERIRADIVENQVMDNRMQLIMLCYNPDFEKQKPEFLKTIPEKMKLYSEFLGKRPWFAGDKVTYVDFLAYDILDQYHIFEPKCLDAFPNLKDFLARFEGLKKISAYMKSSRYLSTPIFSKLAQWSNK
Description: Tested for percent inhibition of isolated rat liver cytosolic Glutathione S-transferase 3-3 isoenzyme.

Molecules are shown by their SMILES.

Sequence of Glutathione S-transferase alpha-3 (Rattus norvegicus) (P04904 whole entry, looked up): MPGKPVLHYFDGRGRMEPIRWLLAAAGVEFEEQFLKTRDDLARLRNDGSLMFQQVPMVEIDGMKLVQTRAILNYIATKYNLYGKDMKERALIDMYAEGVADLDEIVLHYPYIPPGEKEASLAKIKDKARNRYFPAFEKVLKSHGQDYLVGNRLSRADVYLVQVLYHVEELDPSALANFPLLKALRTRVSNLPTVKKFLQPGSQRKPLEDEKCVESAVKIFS
Sequence of Glutathione S-transferase alpha-1 (Rattus norvegicus) (P00502 whole entry, looked up): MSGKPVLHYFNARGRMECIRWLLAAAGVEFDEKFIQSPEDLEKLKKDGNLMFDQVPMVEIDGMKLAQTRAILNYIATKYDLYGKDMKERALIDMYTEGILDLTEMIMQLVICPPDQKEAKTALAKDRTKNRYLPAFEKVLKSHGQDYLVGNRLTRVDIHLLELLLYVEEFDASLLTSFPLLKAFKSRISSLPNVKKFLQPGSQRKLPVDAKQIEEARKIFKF

As to `CCCCCC(C)SCC(NC(=O)CCC(N)C(=O)O)C(=O)NCC(=O)O` (single isomer, unassigned), the inhibition (as a rule, the change of the read-out against control, counted positive when it falls) in test [1] worked out at 98%; in test [2], 91%; in test [3], 53%; in test [4], 95%.

As for `CCCCCC(C)SCC(NC(=O)CCC(N)C(=O)O)C(=O)NCc1nn[nH]n1` (stereo not drawn), the inhibition came to 53% in test [1], 59% in test [2], 16% in test [3] and 65% in test [4].
